# Experimental data as given in patent publication US20230416299A1, “COMPOUND AND METHOD FOR THE TREATMENT AND DIAGNOSIS OF NEURODEGENERATIVE CONDITIONS” (Swansea University, priority 2013, published 2023).
# Legend:
# [1] = system: Islet1+ oculomotor neurons; test: In utero injection into the cerebral aqueduct of E11.5 mice, analysis at E13.5; type: in vivo, mouse
# Text: Animals for in-utero injections and tissue preparation. Female wild-type CD-1 mice (25-35 g; Charles River Breeding Laboratories) were housed, bred, and treated according to the guidelines of the European Communities Council (directive 86/609/EEC) and the Society for Neuroscience (www.sfr.org), and all experiments were approved by the local ethical committee. Ethical approval for CD-I mice experimentation was granted by Stockholm Norra Djurforsoksetisks Namnd number N1 54/06, N273/11 and N370/09. For embryo analyses, wild type CD-I mice were mated overnight, and noon of the day the plug was considered E0.5. Embryos were dissected out of the uterine horns in ice-cold PBS, fixed in 4% paraformaldehyde (PFA) for 4 h to overnight, cryoprotected in 15-30% sucrose, frozen in Tissue-Tek Optimum Cutting Temperature (OCT) compound (Sakura Fine-Tek) on dry ice, and stored at −80° C. until use. Serial coronal 14-μπι sections of the brain were obtained on a cryostat.
# Immunohistochemical analysis of sections. Ten sets of 14 μπι serial coronal sections were cut on a cryostat. No. 1 and 6 sets were subjected to immunohistochemistry. Sections were pre-incubated for 1 h in blocking solution followed by incubation at 4° C. overnight with following primary antibodies: anti-TH (1:750, Pel-Freeze), anti-Islet-1 (1:100; Developmental Studies Hybridoma Bank), anti-cleaved caspase-3 (Aspl175) (1:100; Cell Signaling Technology). After washing, slides were incubated for 1-2 h at room temperature with the appropriate fluorophore-conjugated (Cy2-, Cy3- and Cy5-, 1:300, Jackson Laboratories; Alexa488-, 555-, and 647-, 1:1000, Invitrogen) secondary antibodies. Confocal pictures were taken with a Zeiss LSM5 Exciter or LSM700 microscope.
# In utero intraventricular injections. E11.5 pregnant females were deeply anesthetized using Isofluorane (ISOFLO®, Abbott Labs) and the uterine horns were accessed through an abdominal incision. 1 μL of the different cholestenoic acids studied (5 mM) or vehicle solution (isopropanol, 50% v/v) was injected into the cerebral aqueduct. The uterine horns were replaced into the abdominal cavity, which was then closed with sutures. Embryos were analyzed 48 h later.
# [2] = system: Islet-1:GFP transgenic zebrafish embryos; type: in vivo
# [3] = system: mouse E11.5 brain primary cultures; test: Mouse E11.5 brain primary cultures (Islet1+, active caspase 3+, BrdU, Nkx6.1 counts); type: cell-based; conditions: for Number of Islet1+ cells: 3 DIV; for Number of active caspase-3+ cells: 10 μM 3β,7α-diHCA, 3βH,7O-CA, 25-HC, low concentrations of 3β,7β-diHCA, 3β-HCA
# [4] = 1 μL of 5 mM injected at E11.5, analysed at E13.5
SMILES,"Number of Islet+ oculomotor neurons in vivo [1, 4]",Toxicity to zebrafish embryos ([2]; 10 μM in medium),Number of Nkx6.1+ progenitor cells [3],"Concentration at which toxicity is initiated (active caspase-3+ cells) ([3]; mouse, E11.5 mouse brain primary cultures, 3 days) [nM]",Number of Islet1+ cells ([3]; wild type cultures),Number of active caspase-3+ cells ([3]; wt cultures),"Number of TH+ neurons in vivo [1, 4]",Effect of co-injection on the 3β-HCA-induced reduction of Islet+ oculomotor neurons ([1]; co-injected with 3β-HCA),"Islet-1 mRNA and protein level (qPCR, western blot) ([2]; 10 μM)",abca1 mRNA expression in vivo ([2]; 10 μM),"Islet-GFP expression in cranial nerves ([2]; 10 μM, 48 hpf)","Number of Islet1+ cells in cranial nerves (III, IV, V, VII, X) ([2]; 10 μM, 48 hpf)","Islet-GFP levels after lxr morpholino (MO) injection ([2]; 10 μM, lxr MO vs control scrambled MO)","Number of other midbrain neurons (TH+ dopamine, GABAergic, red nucleus) [3]","Reduction of neuronal cell death (activated caspase 3) induced by 2 μM 3β,7β-diHCA or 3β-HCA ([3]; 10 μM)","Rescue of loss of Islet1+ cells induced by 2 μM 3β,7β-diHCA or 3β-HCA ([3]; 10 μM)","Effect on active caspase-3+ cells with GGPP ([3]; GGPP 10 μM, 3β,7β-diHCA, 3β-HCA at 2 μM)","Concentration with significant difference (p<0.05) from vehicle in number of Islet1+ cells ([3]; wild type cultures, dose response) [µM]","Effect on Islet1+ cells with Lxr antagonist GGPP ([3]; wt cultures, GGPP 10 μM)"
"CC(CCC[C@@H](C)[C@H]1CC[C@H]2[C@@H]3CC=C4C[C@@H](O)CC[C@]4(C)[C@H]3CC[C@]12C)C(=O)O (stereo partly drawn) [3β-HCA, 3β-hydroxycholest-5-en-26-oic acid]",the number of Islet+ oculomotor neurons was reduced,deleterious toxic effect which impaired the survival of the fish,did not affect the number of Nkx6.1+ progenitor cells,1000,caused the loss of Islet1+ cells in the cultures,increased the number of active caspase-3+ cells,–,–,–,–,–,–,–,–,–,–,–,–,–
"CC(CCC[C@@H](C)[C@H]1CC[C@H]2[C@@H]3[C@H](O)C=C4C[C@@H](O)CC[C@]4(C)[C@H]3CC[C@]12C)C(=O)O (stereo partly drawn) [3β,7α-diHCA, 3β,7α-dihydroxycholest-5-en-26-oic acid]",an increase in the number of Islet+ oculomotor neurons,–,did not affect the number of Nkx6.1+ progenitor cells,–,increased the number of Islet1+ oculomotor cells in the cultures,decreased the number of active caspase-3+ cells,not of TH+ neurons,"this effect was eliminated by co-injection of 3β,7α-diHCA",increase in the level of Islet-1 mRNA and protein,enhanced expression of abca1,increased Islet-GFP expression,no significant effect on the number of Islet1+ cells,abolished the in vivo increase in Islet-GFP levels,did not affect the number of other midbrain neurons,reduced the neuronal cell death,reversed the loss of Islet 1+ cells,completely blocked by co-incubation with the Lxr inhibitor GGPP,≥ 5,blocked by the Lxr antagonist GGPP
